Measurements from paper PMC8445441, “Elucidating the mechanism by which synthetic helper peptides sensitize Pseudomonas aeruginosa to multiple antibiotics” (PLoS Pathogens, 2021).
Where two headings read alike, the source gives them in different places.

Columns and labels:
[1] = test system: P. aeruginosa AUMC-Pa-3; experiment: microbe, parasite or virus in culture; conditions: for MIC: Pseudomonas aeruginosa, AUMCPA3, 18 h, read-out: MICa: MIC of the antibiotic; for FICI / MICac: MIC of the antibiotic in the combination: strain AUMC-Pa-3; for FICI: antibiotic + D-11 (MICb/MICbc 128/4); for MICac: MIC of the antibiotic in the combination: with D-11 at MICbc 4, unit not given
Procedure, shortened: (§1)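 Growth inhibition was scored by eye after an 18 h, 37 °C incubation of drug-bacteria mixtures in Mueller-Hinton broth. Inoculum suspension held approximately 1 × 10^6 CFU/mL before 1:1 mixing.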

[2] = test system: P. aeruginosa AUMC-Pa-4; experiment: microbe, parasite or virus in culture; conditions: for MIC: Pseudomonas aeruginosa, AUMCPA4, 18 h, read-out: MICa: MIC of the antibiotic; for FICI / MICac: MIC of the antibiotic in the combination: strain AUMC-Pa-4; for FICI: antibiotic + D-11 (MICb/MICbc 128/4); for MICac: MIC of the antibiotic in the combination: with D-11 at MICbc 4, unit not given
Procedure, shortened: as §1

[3] = test system: P. aeruginosa AUMC-Pa-5; experiment: microbe, parasite or virus in culture; conditions: for FICI: antibiotic + D-11 (MICb/MICbc 64/4); for MICac: MIC of the antibiotic in the combination: with D-11 at MICbc 4
Procedure, shortened: as §1

[4] = test system: P. aeruginosa AUMC-Pa-6; experiment: microbe, parasite or virus in culture; conditions: for FICI: antibiotic + D-11 (MICb/MICbc 64/4); for MICac: MIC of the antibiotic in the combination: with D-11 at MICbc 4
Procedure, shortened: as §1

[5] = test system: P. aeruginosa PAO1; experiment: microbe, parasite or virus in culture; conditions: PAO1; for MIC: Pseudomonas aeruginosa, PAO1, 18 h, read-out: MICa: the MIC of antibiotics, S3 Table
Procedure, shortened: as §1

[6] = test system: P. aeruginosa ATCC27853; experiment: microbe, parasite or virus in culture; design: MICa: MIC of the antibiotic / MICac: MIC of the antibiotic in the combination: unit not given beside the values; conditions: for FICI: antibiotic + D-11 (MICb/MICbc 32/4); for MICac: MIC of the antibiotic in the combination: with D-11 at MICbc 4
Procedure, shortened: as §1

[7] = test system: P. aeruginosa NR-31040; experiment: microbe, parasite or virus in culture; design: MICa: MIC of the antibiotic / MICac: MIC of the antibiotic in the combination: unit not given beside the values; conditions: for MIC: Pseudomonas aeruginosa, NR31040, 18 h, read-out: MICa: MIC of the antibiotic; for FICI / MICac: MIC of the antibiotic in the combination: strain NR-31040; for FICI: antibiotic + D-11 (MICb/MICbc 128/4); for MICac: MIC of the antibiotic in the combination: with D-11 at MICbc 4, unit not given
Procedure, shortened: as §1

[8] = test system: P. aeruginosa NR-31041; experiment: microbe, parasite or virus in culture; design: MICa: MIC of the antibiotic / MICac: MIC of the antibiotic in the combination: unit not given beside the values; conditions: for MIC: Pseudomonas aeruginosa, NR31041, 18 h, read-out: MICa: MIC of the antibiotic; for FICI / MICac: MIC of the antibiotic in the combination: strain NR-31041; for FICI: antibiotic + D-11 (MICb/MICbc 64/4); for MICac: MIC of the antibiotic in the combination: with D-11 at MICbc 4, unit not given
Procedure, shortened: as §1

[9] = test system: P. aeruginosa PA14; experiment: microbe, parasite or virus in culture; design: MICa: MIC of the antibiotic / MICac: MIC of the antibiotic in the combination: unit not given beside the values; conditions: strain PA14; for FICI: antibiotic + D-11 (MICb/MICbc 128/4); for MICa: MIC of the antibiotic: antibiotic alone; for MICa: MIC of the antibiotic / MICac: MIC of the antibiotic in the combination: unit not given; for MICac: MIC of the antibiotic in the combination: with D-11 at MICbc 4
Procedure, shortened: as §1

[10] = test system: P. aeruginosa PAK; experiment: microbe, parasite or virus in culture; design: MICa: MIC of the antibiotic / MICac: MIC of the antibiotic in the combination: unit not given beside the values; conditions: for MIC: Pseudomonas aeruginosa, 18 h, read-out: MICa: MIC of the antibiotic; for FICI / MICac: MIC of the antibiotic in the combination: strain PAK; for FICI: antibiotic + D-11 (MICb/MICbc 64/4); for MICac: MIC of the antibiotic in the combination: with D-11 at MICbc 4, unit not given
Procedure, shortened: as §1

[11] = test system: P. aeruginosa HM-214; conditions: strain HM-214; antibiotic + D-11 (MICb/MICbc 128/4)
Procedure, shortened: as §1

[12] = test system: P. aeruginosa AUMC-Pa-1; conditions: strain AUMC-Pa-1; antibiotic + D-11 (MICb/MICbc 128/4)
Procedure, shortened: as §1

[13] = test system: P. aeruginosa AUMC-Pa-2; conditions: strain AUMC-Pa-2; antibiotic + D-11 (MICb/MICbc 64/4)
Procedure, shortened: as §1

[14] = test system: clinical P. aeruginosa isolates; experiment: microbe, parasite or virus in culture; conditions: Pseudomonas aeruginosa, 18 h, antibiotic alone
Procedure, shortened: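 Broth microdilution per CLSI in MHB, two-fold drug dilutions mixed with an equal volume of bacteria at about 1 × 10^6 CFU/mL. After 18 h at 37 °C, MIC taken as the lowest concentration with no visible growth; run in triplicate.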

[15] = strain AUMC-Pa-5, unit not given
[16] = strain AUMC-Pa-6, unit not given
[17] = S3 Table, antibiotic + 2 μM D-11
[18] = S3 Table, antibiotic + 4 μM D-11
[19] = strain ATCC27853, unit not given
[20] = read-out: Antibiotic sensibility (MIC) of clinical P. aeruginosa isolate AUMC-Pa-1, strain AUMC-Pa-1
[21] = read-out: Antibiotic sensibility (MIC) of clinical P. aeruginosa isolate AUMC-Pa-2, strain AUMC-Pa-2
[22] = read-out: Antibiotic sensibility (MIC) of clinical P. aeruginosa isolate AUMC-Pa-3, strain AUMC-Pa-3
[23] = read-out: Antibiotic sensibility (MIC) of clinical P. aeruginosa isolate AUMC-Pa-4, strain AUMC-Pa-4
[24] = read-out: Antibiotic sensibility (MIC) of clinical P. aeruginosa isolate AUMC-Pa-5, strain AUMC-Pa-5
[25] = read-out: Antibiotic sensibility (MIC) of clinical P. aeruginosa isolate AUMC-Pa-6, strain AUMC-Pa-6
[26] = read-out: Antibiotic sensibility (MIC) of clinical P. aeruginosa isolate HM-214, strain HM-214
[27] = read-out: Antibiotic sensibility (MIC) of clinical P. aeruginosa isolate NR-31040, strain NR-31040
[28] = read-out: Antibiotic sensibility (MIC) of clinical P. aeruginosa isolate NR-31041, strain NR-31041

With C[C@H]1c2cccc(O)c2C(=O)C2=C(O)[C@]3(O)C(=O)C(C(N)=O)=C(O)[C@@H](N(C)C)[C@@H]3[C@@H](O)[C@@H]21 [Doxycycline] the MIC [1] was 16 µM, the FICI [1] was 0.063 and the “MICac: MIC of the antibiotic in the combination” value (“MICac: MIC of the antibiotic” for short) [1] was 0.5. The MIC [2] was 16 µM, the FICI [2] was 0.063 and the “MICac: MIC of the antibiotic” value [2] was 0.5. For the same compound, the FICI ([3]; strain AUMC-Pa-5) was 0.313, the “MICa: MIC of the antibiotic” value ([3]; strain AUMC-Pa-5, antibiotic alone, unit not given) was 8 and the “MICac: MIC of the antibiotic” value [3, 15] was 2. For the same compound, the FICI ([4]; strain AUMC-Pa-6) was 0.125, the “MICa: MIC of the antibiotic” value ([4]; strain AUMC-Pa-6, antibiotic alone, unit not given) was 16 and the “MICac: MIC of the antibiotic” value [4, 16] was 1. It also gave an MIC ([5]; antibiotic alone) of 16 µM, an FICI [5, 17] of 0.094 and an FICI [5, 18] of 0.141. For the same compound, the “MICac: the MIC for the antibiotic in the combination” value ([5]; S3 Table, with 2 μM D-11) was 0.5 µM, the “MICac: the MIC for the antibiotic in the combination” value ([5]; S3 Table, with 4 μM D-11) was 0.25 µM and the “MICa: the MIC of antibiotics” value ([5]; S3 Table, antibiotic alone) was 16 µM. For the same compound, the MIC ([6]; Pseudomonas aeruginosa, ATCC27853, 18 h, read-out: MICa: MIC of the antibiotic) was 16 µM, the FICI ([6]; strain ATCC27853) was 0.156 and the “MICac: MIC of the antibiotic” value [6, 19] was 0.5. For the same compound, the MIC [7] was 16 µM, the FICI [7] was 0.039 and the “MICac: MIC of the antibiotic” value [7] was 0.125. For the same compound, the MIC [8] was 16 µM, the FICI [8] was 0.094 and the “MICac: MIC of the antibiotic” value [8] was 0.5. The FICI [9] was 0.094, the “MICa: MIC of the antibiotic” value [9] was 16 and the “MICac: MIC of the antibiotic” value [9] was 1. For the same compound, the MIC [10] was 16 µM, the FICI [10] was 0.094 and the “MICac: MIC of the antibiotic” value [10] was 0.5. It also gave an FICI [11] of 0.063, an FICI [12] of 0.063 and an FICI [13] of 0.188. For the same compound, the MIC [14, 20] was 32 µM, the MIC [14, 21] was 8 µM and the MIC [14, 22] was 16 µM. It also gave an MIC [14, 23] of 16 µM, an MIC [14, 24] of 8 µM and an MIC [14, 25] of 16 µM. It also gave an MIC [14, 26] of 16 µM, an MIC [14, 27] of 16 µM and an MIC [14, 28] of 16 µM.
For C[C@@H]1O[C@@H]1P(=O)(O)O [Fosfomycin], the MIC [1] was over 128 µM, the FICI [1] was 0.156 and the “MICac: MIC of the antibiotic” value [1] was 32. The MIC [2] was over 128 µM, the FICI [2] was 1.031 and the “MICac: MIC of the antibiotic” value [2] was >128/>128. The MIC ([3]; Pseudomonas aeruginosa, AUMCPA5, 18 h, read-out: MICa: MIC of the antibiotic) was over 128 µM, the FICI ([3]; strain AUMC-Pa-5) was 0.563 and the “MICac: MIC of the antibiotic” value [3, 15] was >128/128. The MIC ([4]; Pseudomonas aeruginosa, AUMCPA6, 18 h, read-out: MICa: MIC of the antibiotic) was over 128 µM, the FICI ([4]; strain AUMC-Pa-6) was 1.063 and the “MICac: MIC of the antibiotic” value [4, 16] was >128/>128. It also gave an MIC ([5]; antibiotic alone) of over 128 µM, an FICI [5, 17] of 0.188 and an FICI [5, 18] of 0.188. The FICI ([6]; strain ATCC27853) was 0.188, the “MICa: MIC of the antibiotic” value ([6]; strain ATCC27853, antibiotic alone, unit not given) was 128 and the “MICac: MIC of the antibiotic” value [6, 19] was 8. For the same compound, the MIC [7] was over 128 µM, the FICI [7] was 0.531 and the “MICac: MIC of the antibiotic” value [7] was >128/128. The MIC [8] was over 128 µM, the FICI [8] was 0.563 and the “MICac: MIC of the antibiotic” value [8] was >128/128. The FICI [9] was 0.281, the “MICa: MIC of the antibiotic” value [9] was 128 and the “MICac: MIC of the antibiotic” value [9] was 32. For the same compound, the MIC [10] was over 128 µM, the FICI [10] was 0.313 and the “MICac: MIC of the antibiotic” value [10] was 64. It also gave an FICI [11] of 0.281, an FICI [12] of 0.281 and an FICI [13] of 0.188. The MIC [14, 20] was over 128 µM, the MIC [14, 21] was 128 µM and the MIC [14, 22] was over 128 µM. It also gave an MIC [14, 23] of over 128 µM, an MIC [14, 24] of over 128 µM and an MIC [14, 25] of over 128 µM. The MIC [14, 26] was over 128 µM, the MIC [14, 27] was over 128 µM and the MIC [14, 28] was over 128 µM.
